The conditions of series [1]: cited from earlier work.
Series [2] is described as follows: Pharmacokinetic testing after single oral administration, allopregnanolone detected in plasma. The format is in vivo. The settings on record: male SD rats, i.g. 20 mg/kg (as allopregnanolone). From the text: The object of this experiment is to study the single oral administration of each compound solution of the present invention, and an allopregnanolone solution, to detect allopregnanolone, an active ingredient in plasma, and to evaluate its pharmacokinetic (PK) properties in SD rats. The solution was to dissolve each compound in an aqueous solution containing 5% Tween 20.
The male SD rats used in this embodiment, weighing 180-220 g, were purchased from Shanghai SLAC Laboratory Animal Co., Ltd. All animals were fasted overnight, until 4 hours after administration.
The experimental SD rats were grouped by randomized block design, and 5 rats in each group, namely allopregnanolone group, compound 1 hydrochloride group, compound 2 hydrochloride group, compound 14 hydrochloride group, and compound 15 hydrochloride group. Each group was administered by irrigation (i.g.) at a dose of 20 mg/kg (as measured by allopregnanolone).
0.0833 h, 0.25 h, 0.5 h, 1 h, 2 h, 3 h, 4 h, 6 h, 9 h, 12 h, 24 h after the administration, about 0.6 mL of blood sample was collected from peripheral veins and transferred to a commercial centrifuge tube containing 0.85 to 1.15 mg of K2 EDTA anticoagulant (Jiangsu Kangjian Medical Products Co., Ltd.). Within 30 minutes after blood collection, plasma was centrifuged (centrifugation at 3,000 g for 10 minutes at approximately 4° C.). The plasma was placed in a labeled polypropylene tube, quick-frozen in dry ice, then stored in an ultra-low temperature freezer at −60° C. or lower for testing. LC-MS/MS bioassay was used to detect the concentration of drug in SD rat plasma. Blood concentration-time data was analyzed using a non-compartment model and a WinNonlin software package (version6.3 or later), as shown in Table-3.

A short description of a further series: physchem. The settings on record: 25 °C, thermodynamic from solid.
Series [3] in a line: Stability of compound in 5% glucose solution (HPLC purity over time). It counts as physicochemical. The settings on record: about 1 mg/g, room temperature. On the procedure:
An appropriate amount of the derivative of the present invention was weighed respectively, dissolved in a 5% glucose solution and prepared into a solution with a concentration of about 1 mg/g.
(1) Blank solution: Methanol.
(2) Sample solution: A suitable solution was taken and filtered through a 0.22 μm filter membrane.

The mark [4] stands for this setting: pH 4.5 buffer solution, pH 4.5, aqueous buffer.

Molecules are shown by their SMILES. Structures can show the parent of a compound that is named as a salt. A value given as a limit tells only on which side of the number the result lay.

Procedure for physchem: An appropriate amount of the compound of the present invention was weighed, prepared into solutions with different media, respectively, stirred in a constant temperature water bath magnetometer at 25° C. for about 24 hours, and filtered through a 0.22 μm water filter membrane. An appropriate amount of filtrate was diluted to a certain concentration with methanol, and used as a test solution. The concentration of the test solution was determined by HPLC with a UV detector using methanol as a blank control solution.
(2) Reference solution: 5 mg of reference substance was weighed precisely, placed in a 10 mL measuring flask, dissolved with methanol and diluted to scale, and mixed well.
(3) Sample solution: An appropriate amount of sample solution was pipetted, diluted with methanol to about 0.5 mg/mL (determined by the concentration of each sample), and mixed well.

Regarding `CC(=O)[C@H]1CC[C@H]2[C@@H]3CC[C@H]4C[C@H](O)CC[C@]4(C)[C@H]3CC[C@]12C` [Allopregnanolone, allopregnanolone, reference compound], in series [1], the “human plasma half-life period” value was “about 45 minutes”. For the same compound, the AUC0-last in series [2] was found to be 24.9 ng′ hours/mL.

The term solubility denotes the dissolved amount per volume that the medium holds. Lower therefore signals little dissolved substance. Consider `CC(=O)[C@H]1CCC2[C@@H]3CCC4CC(OC(=O)C(NC(=O)CN)C(C)C)CC[C@]4(C)C3CC[C@@]21C` (stereo partly drawn) [Compound 2 hydrochloride], for which the solubility at 24 h in “physchem” (setting [4]) and in “physchem” (water) was above 10000 µg/mL in each case. The Purity in series [3] (0 hour) is reported as 95.00%; in series [3] (1 hour), 94.59%; in series [3] (3 hours), 94.50%; in series [3] (5 hours) it was 94.05%; in series [3] (8 hours), 94.33%. The compound also showed an AUC0-last in series [2] of 196.0 ng′ hours/mL.

As to `CC(=O)[C@H]1CCC2[C@@H]3CCC4CC(OC(=O)C(NC(=O)C5CCCN5)C(C)C)CC[C@]4(C)C3CC[C@@]21C` (stereo partly drawn) [Compound 4 hydrochloride], the solubility at 24 h in “physchem” (water) amounted to 190 µg/mL.

In the case of `CC(=O)[C@H]1CCC2[C@@H]3CCC4CC(OC(=O)C(NC(=O)C(N)Cc5c[nH]c6ccccc56)C(C)C)CC[C@]4(C)C3CC[C@@]21C` (stereo partly drawn) [Compound 5 hydrochloride], the solubility at 24 h in “physchem” (water) came out at 70 µg/mL.

Regarding `CC(=O)[C@H]1CC[C@H]2[C@@H]3CC[C@H]4C[C@H](OC(=O)[C@@H](NC(=O)C(C)N)C(C)C)CC[C@]4(C)[C@H]3CC[C@]12C` (stereo partly drawn) [Compound 6 hydrochloride], in the series “physchem” (water), the solubility at 24 h was 5680 µg/mL.

For the compound `CC(=O)[C@H]1CC[C@H]2[C@@H]3CC[C@H]4CC(OC(=O)C(NC(=O)C(N)CC(C)C)C(C)C)CC[C@]4(C)[C@H]3CC[C@]12C` (stereo partly drawn) [Compound 7 hydrochloride], in the series “physchem” (water), the solubility at 24 h is 7380 µg/mL.

Turning to `CC(=O)[C@H]1CC[C@H]2[C@@H]3CC[C@H]4C[C@H](OC(=O)[C@H](C)NC(=O)[C@@H](N)C(C)C)CC[C@]4(C)[C@H]3CC[C@]12C` [Compound 10 hydrochloride], the Purity in series [3] (0 hour) is on record as 99.12%; in series [3] (1 hour), 99.09%; in series [3] (3 hours), 99.04%; in series [3] (5 hours) it was 98.05%; in series [3] (8 hours), 97.89%.

In the case of `CC(=O)[C@H]1CC[C@H]2[C@@H]3CC[C@H]4C[C@H](OC(=O)[C@H](C)NC(=O)CN)CC[C@]4(C)[C@H]3CC[C@]12C` [Compound 12 hydrochloride], the solubility at 24 h was determined as 1910 µg/mL in “physchem” (setting [4]) and 2620 µg/mL in the series “physchem” (water).

For the compound `CC(=O)[C@H]1CC[C@H]2[C@@H]3CC[C@H]4C[C@H](OC(=O)[C@H](C)OC(=O)[C@@H](N)C(C)C)CC[C@]4(C)[C@H]3CC[C@]12C` [Compound 13 hydrochloride], the solubility at 24 h in the series “physchem” (setting [4]) was found to be 10 µg/mL; in the series “physchem” (water) it was 370 µg/mL.

For `CC(=O)[C@H]1CC[C@H]2[C@@H]3CC[C@H]4C[C@H](OC(=O)CNC(=O)[C@@H](N)C(C)C)CC[C@]4(C)[C@H]3CC[C@]12C` [Compound 14 hydrochloride], the solubility at 24 h in the series “physchem” (setting [4]) was above 50000 µg/mL; in “physchem” (water), above 10000 µg/mL. The AUC0-last in series [2] worked out at 150.2 ng′ hours/mL.

In the series “physchem” (water), `CC(=O)[C@H]1CC[C@H]2[C@@H]3CC[C@H]4C[C@H](OC(=O)CNC(=O)CN)CC[C@]4(C)[C@H]3CC[C@]12C` [Compound 15 hydrochloride] gave a solubility at 24 h of 1110 µg/mL. Also, the AUC0-last in series [2] worked out at 166.3 ng′ hours/mL.

Regarding `CC(=O)[C@H]1CC[C@H]2[C@@H]3CC[C@H]4C[C@H](OC(=O)CNC(=O)[C@H](C)N)CC[C@]4(C)[C@H]3CC[C@]12C` [Compound 23 hydrochloride], the solubility at 24 h came to 970 µg/mL in the series “physchem” (setting [4]) and 640 µg/mL in the series “physchem” (water).

The values above are taken from US20220289788A1, “3-HYDROXY-5-PREGNANE-20-ONE DERIVATIVE AND USE THEREOF” (priority 2019, published 2022).
